# Measured values reported in patent publication US20250282827A1, “LIPIDATED POLYMYXIN ANALOGUES” (priority 2021, published 2025).
# Like-named read-outs stand apart in the source and are kept apart here. Positions of bridges follow the written chain, without caps; N, C: chain ends. Non-standard residues stand in square brackets, D forms with d. Residues, ends and D or L forms follow the SMILES beside them. *: point of attachment. CH2CH2OBz(4-tBu) = CC(C)(C)c1ccc(C(=O)OCC*)cc1; Ethyl(2-propionyloxy) = CCC(=O)OCC*; Ethyl(2-OPiv) = CC(C)(C)C(=O)OCC*; Ethyl(2-OBz) = O=C(OCC*)c1ccccc1; Lauroyl = CCCCCCCCCCCC(=O)*; Dab = NCC[C@H](N)C(=O)O
# Columns and labels:
# [1] = test system: E. coli ATCC MS8345; assay type: cell-based, Escherichia coli
# Description: (§1) All 81 compounds prepared in Examples 2 and 3 underwent screening against a panel of Gram-negative bacterium to assess their ability to inhibit bacterial growth. […] The median value is presented.
# Expansion of the polymyxin macrocycle by substituting […]) offered little advantage in antimicrobial activity but was generally well tolerated although for A. baumanni and P. aeruginosa this was detrimental.
# [2] = test system: A. baumannii ATCC 19606; assay type: cell-based, Acinetobacter baumannii
# Description: as §1
# [3] = test system: E. coli ATCC 25922; assay type: cell-based, Escherichia coli
# Description: as §1
# [4] = test system: P. aeruginosa ATCC 27853; assay type: cell-based, Pseudomonas aeruginosa
# Description: as §1
# [5] = test system: K. pneumoniae ATCC 33495; assay type: cell-based, Klebsiella pneumoniae
# Description: as §1
# [6] = test system: K. pneumoniae ATCC 700603; assay type: cell-based, Klebsiella pneumoniae
# Description: as §1
# [7] = test system: K. pneumoniae ATCC MS6671; assay type: cell-based, Klebsiella pneumoniae
# Description: as §1
# [8] = colistin-resistant strain, median of triplicate
SMILES,MIC E. coli ATCC MS8345 ([1]; ATCC MS8345) [mg/L],MIC A. baumannii ATCC 19606 ([2]; ATCC 19606) [mg/L],MIC E. coli ATCC 25922 ([3]; ATCC 25922) [mg/L],MIC P. aeruginosa ATCC 27853 ([4]; ATCC 27853) [mg/L],MIC K. pneumoniae ATCC 33495 ([5]; ATCC 33495) [mg/L],MIC K. pneumoniae ATCC 700603 ([6]; ATCC 700603) [mg/L],MIC K. pneumoniae ATCC MS6671 ([7]; ATCC MS6671) [mg/L],"MIC E. coli ATCC MS8345 [1, 8] [mg/L]",MIC A. baumannii ATCC 19606 ([2]; median of triplicate) [mg/L],MIC E. coli ATCC 25922 ([3]; median of triplicate) [mg/L],MIC P. aeruginosa ATCC 27853 ([4]; median of triplicate) [mg/L],MIC K. pneumoniae ATCC 33495 ([5]; median of triplicate) [mg/L],MIC K. pneumoniae ATCC 700603 ([6]; median of triplicate) [mg/L],MIC K. pneumoniae ATCC MS6671 ([7]; median of triplicate) [mg/L]
CC(C)C[C@@H]1NC(=O)[C@@H](Cc2ccccc2)NC(=O)[C@H](CCN)NC(=O)[C@@H](NC(=O)[C@H](CCN)NC(=O)[C@@H](NC(=O)[C@H](CCN)NC(=O)[C@@H](N)CSCCOC(=O)c2ccc(C(C)(C)C)cc2)[C@@H](C)O)CCNC(=O)[C@H]([C@@H](C)O)NC(=O)[C@H](CCN)NC(=O)[C@H](CCN)NC1=O [Compound 34] (H-C(CH2CH2OBz(4-tBu))[Dab]T[Dab][Dab][Dab][dF]L[Dab][Dab]T; lactam 5-C),1,1,1,0.5,0.25,1,>32,,,,,,,
CCC(=O)OCCSC[C@@H]1NC(=O)[C@@H](Cc2ccccc2)NC(=O)[C@H](CCN)NC(=O)[C@@H](NC(=O)[C@H](CCN)NC(=O)[C@@H](NC(=O)[C@H](CCN)NC(=O)[C@@H](N)CSCCOC(=O)C(C)(C)C)[C@@H](C)O)CCNC(=O)[C@H]([C@@H](C)O)NC(=O)[C@H](CCN)NC(=O)[C@H](CCN)NC1=O [Compound 45] (H-C(Ethyl(2-OPiv))[Dab]T[Dab][Dab][Dab][dF]C(Ethyl(2-propionyloxy))[Dab][Dab]T; lactam 5-C),16 to 32,2 to 4,0.25,16,0.25 to 0.5,0.25 to 0.5,>32,,,,,,,
CCCCCCCCCCCC(=O)N[C@@H](CSCCOC(=O)c1ccccc1)C(=O)N[C@@H](CCN)C(=O)N[C@H](C(=O)N[C@@H](CCN)C(=O)N[C@H]1CCNC(=O)[C@H]([C@@H](C)O)NC(=O)[C@H](CCN)NC(=O)[C@H](CCN)NC(=O)[C@H](CSCCOC(=O)c2ccccc2)NC(=O)[C@@H](Cc2ccccc2)NC(=O)[C@H](CCN)NC1=O)[C@@H](C)O [Compound 52] (Lauroyl-C(Ethyl(2-OBz))[Dab]T[Dab][Dab][Dab][dF]C(Ethyl(2-OBz))[Dab][Dab]T; lactam 5-C),,,,,,,,2 to 4,2 to 4,2 to 4,4,2 to 4,4,>32
CC(C)C[C@@H]1NC(=O)[C@@H](Cc2ccccc2)NC(=O)[C@H](CCN)NC(=O)[C@@H](NC(=O)[C@H](CCN)NC(=O)[C@@H](NC(=O)[C@H](CCN)NC(=O)[C@@H](N)CSCCOC(=O)c2ccccc2)[C@@H](C)O)CCCCNC(=O)[C@H]([C@@H](C)O)NC(=O)[C@H](CCN)NC(=O)[C@H](CCN)NC1=O [Compound 27] (H-C(Ethyl(2-OBz))[Dab]T[Dab]K[Dab][dF]L[Dab][Dab]T; lactam 5-C),,,,,,,,>32,>32,1,>32,0.5,2 to 4,>32
C[C@@H](O)[C@@H]1NC(=O)[C@H](CCN)NC(=O)[C@H](CCN)NC(=O)[C@H](CSCCOC(=O)c2ccccc2)NC(=O)[C@@H](Cc2ccccc2)NC(=O)[C@H](CCN)NC(=O)[C@@H](NC(=O)[C@H](CCN)NC(=O)[C@@H](NC(=O)[C@H](CCN)NC(=O)[C@@H](N)CSCCOC(=O)c2ccc(C(C)(C)C)cc2)[C@@H](C)O)CCNC1=O [Compound 41] (H-C(CH2CH2OBz(4-tBu))[Dab]T[Dab][Dab][Dab][dF]C(Ethyl(2-OBz))[Dab][Dab]T; lactam 5-C),,,,,,,,4,2,1,2,2 to 4,1 to 2,>32
